Data reported in patent US20120129730A1, “GENERATION OF COMPOUND LIBRARIES UTILIZING MOLECULAR IMPRINTS INCLUDING A DOUBLE OR ANTI-IDIOTYPIC APPROACH” (KLAUS MOSBACH, priority 2001, published 2012).

Target: T1, tissue kallikrein (UniProt P00752)
T1 sequence (P00752 1-246): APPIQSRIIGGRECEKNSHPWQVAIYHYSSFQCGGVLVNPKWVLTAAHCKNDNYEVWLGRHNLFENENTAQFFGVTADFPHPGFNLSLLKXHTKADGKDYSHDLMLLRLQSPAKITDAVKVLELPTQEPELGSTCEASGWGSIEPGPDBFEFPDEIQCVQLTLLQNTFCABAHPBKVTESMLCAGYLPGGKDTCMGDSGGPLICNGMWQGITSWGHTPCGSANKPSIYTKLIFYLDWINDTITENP
Assay: Determination of inhibition constants (Ki) for tissue kallikrein
Assay type: biochemical
Conditions: for Ki: literature method of Burton and Lowe, read-out: Ki, inhibition constant for tissue kallikrein
Protocol: Determination of Inhibition Constants (Ki) for Tissue Kallikrein
Inhibition constants of compounds 1, 2 and 3 for tissue kallikrein are determined according to the literature method described by Burton and Lowe. ^7 The results are listed in Table 4.

| Ki [µM] | Structure (SMILES) | inhibition efficacy compared with the original template (1) (tissue kallikrein inhibition, comparison in words) |
| --- | --- | --- |
| > 100 | N=C(N)c1ccc(Nc2nc(Cl)nc(Cl)n2)cc1 [2-(4-amidinophenylamino)-4,6-dichloro-s-triazine, reference compound] |  |
| 5.2 | N=C(N)c1ccc(Nc2nc(Cl)nc(NCc3ccccc3)n2)cc1 [Compound 3] | approximately the same inhibition efficacy as that of the original template (1) |
